PubChem BioAssay (NCI)
Several values for one entry are separate records, joined by “and”; a condition that tells them apart may be missing. Identical values can stand only once.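 Protocol summary: plate cells (96-well), add compound at 5 concentrations, incubate 48 h, interpolate endpoints linearly. GI50 = concentration required for 50% inhibition of growth. TGI marks complete inhibition of growth.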

Key:
Assay in all cases: inhibition of tumour cell growth, NCI panel, 48 h
SF-539 CNS = system: SF-539 CNS
UACC-62 melanoma = system: UACC-62 melanoma
HCT-15 colon = system: HCT-15 colon
HCC-2998 colon = system: HCC-2998 colon
MDA-MB-435 = system: MDA-MB-435
OVCAR-4 ovarian = system: OVCAR-4 ovarian
SNB-19 CNS = system: SNB-19 CNS
NCI-H522 lung = system: NCI-H522 lung
CCRF-CEM leukemia = system: CCRF-CEM leukemia
RXF 393 renal = system: RXF 393 renal

c1ccc(Nc2nc(-c3ccccn3)cs2)nc1
GI50 (SF-539 CNS): 0.825 µM | TGI (SF-539 CNS): > 88.7 µM | GI50 (UACC-62 melanoma): 0.48 µM | TGI (UACC-62 melanoma): > 43 µM | GI50 (HCT-15 colon): 0.172 µM | TGI (HCT-15 colon): > 89.2 µM | GI50 (HCC-2998 colon): 0.516 µM | TGI (HCC-2998 colon): 24.7 µM | GI50 (MDA-MB-435): 0.689 µM | TGI (MDA-MB-435): > 53.5 µM | GI50 (OVCAR-4 ovarian): 0.593 µM | TGI (OVCAR-4 ovarian): > 100 µM | GI50 (SNB-19 CNS): 0.997 µM | TGI (SNB-19 CNS): > 100 µM | GI50 (NCI-H522 lung): 0.253 µM | TGI (NCI-H522 lung): 15.1 µM | GI50 (CCRF-CEM leukemia): 0.259 µM | TGI (CCRF-CEM leukemia): > 29.6 µM | GI50 (RXF 393 renal): 1.98 µM | TGI (RXF 393 renal): > 100 µM

NC(=S)N/N=C/c1ccc(N)cn1
TGI (SF-539 CNS): 2.2 µM | TGI (UACC-62 melanoma): > 10 µM | TGI (HCT-15 colon): > 10 µM | TGI (HCC-2998 colon): > 10 µM | TGI (MDA-MB-435): > 10 µM | TGI (OVCAR-4 ovarian): > 10 µM | TGI (SNB-19 CNS): > 10 µM | TGI (NCI-H522 lung): > 10 µM | TGI (CCRF-CEM leukemia): > 10 µM | TGI (RXF 393 renal): > 10 µM

O=C1C=CC(=Nc2ccccc2)c2ccccc21
TGI (SF-539 CNS): 29 µM | TGI (UACC-62 melanoma): 12.9 µM | TGI (HCT-15 colon): 24.5 µM | TGI (HCC-2998 colon): 23.1 µM | TGI (MDA-MB-435): 3.42 µM | TGI (OVCAR-4 ovarian): 27.4 µM | TGI (SNB-19 CNS): > 100 µM | TGI (NCI-H522 lung): 23.3 µM | TGI (CCRF-CEM leukemia): > 100 µM | TGI (RXF 393 renal): 23.2 µM

CN1CC[C@]2(c3cccc(O)c3)CC(=O)/C(=C/c3ccccc3)[C@H]1C2
TGI (SF-539 CNS): 5.2 µM | GI50 (UACC-62 melanoma): 3.06 µM | TGI (UACC-62 melanoma): 12.7 µM | GI50 (HCT-15 colon): 2.5 µM | TGI (HCT-15 colon): 10.6 µM | GI50 (HCC-2998 colon): 3.11 µM | TGI (HCC-2998 colon): 9.99 µM | GI50 (MDA-MB-435): 2.08 µM | TGI (MDA-MB-435): 8.96 µM | TGI (OVCAR-4 ovarian): 11 µM | GI50 (SNB-19 CNS): 4.75 µM | TGI (SNB-19 CNS): 17.4 µM | TGI (NCI-H522 lung): 7.76 µM | GI50 (CCRF-CEM leukemia): 2.53 µM | TGI (CCRF-CEM leukemia): 9.36 µM | GI50 (RXF 393 renal): 2.5 µM | TGI (RXF 393 renal): 8.03 µM

Cc1cc2nc3ccc(=[N+](C)C)cc-3sc2cc1N
GI50 (SF-539 CNS): 0.343 µM and 0.349 µM | TGI (SF-539 CNS): 1.64 µM and 8.97 µM and 1.55 µM | GI50 (UACC-62 melanoma): 0.541 µM and 1.07 µM | TGI (UACC-62 melanoma): 2.21 µM and 5.49 µM and 4.52 µM | GI50 (HCT-15 colon): 0.384 µM and 0.63 µM | TGI (HCT-15 colon): 10.9 µM and 18.6 µM and 6.98 µM | GI50 (HCC-2998 colon): 1.2 µM and 2.12 µM | TGI (HCC-2998 colon): 7.36 µM and 12.2 µM and 10.9 µM | GI50 (MDA-MB-435): 0.209 µM and 0.256 µM | TGI (MDA-MB-435): 0.46 µM and 2.18 µM and 0.665 µM | GI50 (OVCAR-4 ovarian): 0.21 µM and 0.146 µM | GI50 (SNB-19 CNS): 0.782 µM | TGI (SNB-19 CNS): 10.5 µM and 8.99 µM and 9.55 µM | GI50 (NCI-H522 lung): 0.274 µM and 1.57 µM | TGI (NCI-H522 lung): 1.66 µM and 8.94 µM and 10.3 µM | GI50 (CCRF-CEM leukemia): 0.279 µM and 0.31 µM | GI50 (RXF 393 renal): 1.7 µM and 1.94 µM | TGI (RXF 393 renal): 6.93 µM and 22.2 µM and 8.17 µM

N#CC1(Nc2ccc(-c3ccc(NC4(C#N)CCCC4)cc3)cc2)CCCC1
TGI (SF-539 CNS): 78.2 µM | TGI (UACC-62 melanoma): > 100 µM | TGI (HCT-15 colon): > 100 µM | TGI (HCC-2998 colon): > 100 µM | TGI (MDA-MB-435): > 100 µM | TGI (OVCAR-4 ovarian): > 100 µM | TGI (SNB-19 CNS): > 100 µM | TGI (NCI-H522 lung): > 100 µM | TGI (CCRF-CEM leukemia): 61.2 µM | TGI (RXF 393 renal): > 100 µM
